Reference: patent US20140128357A1, “METHODS OF PRODUCING AND USING BRASSINOSTEROIDS TO PROMOTE GROWTH, REPAIR AND MAINTENANCE OF SKELETAL MUSCLE AND SKIN” (Rutgers University, priority 2010, published 2014)
Read-outs that look alike come from different tables or passages of the source.

Tests used:
[1] = system: cutaneous wound in C57BL/6J mice; assay: Mouse cutaneous injury model of wound healing; assay type: in vivo
Experimental: Under volatile anesthesia (5% isoflurane to effect), the shoulder and back region of each animal was shaved. A sharp punch (ID 6 mm) over their lumbar spine was applied to remove the skin, including panniculus carnosus and adherent tissues. Test substances were administered topically (TOP), immediately following cutaneous injury, once daily for 10 consecutive days. […] Wounds were traced onto clear plastic sheets and were measured by use of an ImageJ program (rsbweb.nih.gov/ij/), online from the National Institutes of Health (NIH). ImageJ is a public domain, Java-based image processing program developed at the NIH. Time to wound closure was estimated by comparing the area of the wound undergoing treatment to the areas of the wound undergoing control treatments. The percent closure of the wound (%) was calculated, and wound half-closure time (the time at which 50% of the cutaneous wound is closed, CT50) was analyzed by linear regression using Graph-Prism (Graph Software USA). At the end of experiment (10 days after the induction of the wound), animals were euthanized by CO2 gas inhalation. Blood was collected by heart puncture. Wound tissue and muscle were collected for immunohistochemical analyses and wound healing factor assays. HB increased the percent of wound closure in vivo in a mouse model of wound closure (FIG. 13). […] Twenty seven six-week-old male C57BL/6J mice, obtained from the Jackson Laboratory (Bar Harbor, Me.), were housed in individual chambers in a room maintained at a constant temperature with 12 h light-dark cycle. Mice had free access to food and water. Mice were allowed to adapt to new conditions for seven days and handling the mice was performed daily during this time to reduce the stress of physical manipulation. Mice were randomized into groups (n=9) according to body weight one day prior to dosing. Under volatile anesthesia (5% isoflurane to effect), the shoulder and back region of each animal was shaved. A sharp punch (ID 6 mm) over lumbar spine was applied to remove the skin including panniculus carnosus and adherent tissues. […] Pharmacol. 77: 1117-1124, 2009) as a positive control) was administered topically, immediately following cutaneous injury, and then daily for 10 days. To investigate the kinetics of wound healing, wound size was photographed and measured every two days with ImageJ software (rsbweb.nih.gov/ij/). […] The percent closure of the wound (%) was calculated, and time at which 50% of the cutaneous wound was closed (CT50) was analyzed by linear regression. […] Wound sizes were photographed and measured every 2 days for 10 days. Wound closure (%) relative to day 1 was determined every 2 days, and CT50 was calculated by linear regression. […]

3T3 mouse fibroblasts = assay: Cell proliferation, BrdU assay; assay type: cell-based; conditions: 24 h
Experimental: 3T3 fibroblasts were seeded in a 96-well flat bottom plate at a density of 1×10^4 cells/well. Cell viability was measured by an MTT (3-(4,5-Dimethylthiazol-2-yl)-2,5-diphenyltetrazolium bromide) assay in triplicate (0.3-30 μM of test substance for […]) essentially as described by Mosmann (J. Immunol. Methods 65, 55-63, 1983) and quantified spectrophotometrically at 550 nm using a microplate reader (Molecular Devices, Sunnyvale, Calif.). […] For cell proliferation studies, cells were treated in triplicate with 0.1-10 μM of test substance for 24 h and assayed using a BrdU (5-bromo-2′-deoxyuridine) kit from Amersham (Uppsala, Sweden).

[2] = system: orchiectomized (ORX) Wistar rats; assay type: in vivo, rat; conditions: for Glans penis weight: listed as HB
Experimental: Protocol 3: Four-week-old sham-operated (sham, n=6) or orchiectomized (ORX, n=24) Wistar rats (Charles River Laboratories, MA) were subject to a 10-d Hershberger assay (surgically castrated peri-pubertal adult model) under the following experimental conditions: sham, ORX (vehicle), ORX (20 mg/kg HB orally), ORX (60 mg/kg HB orally), and ORX (0.4 mg/kg testosterone propionate subcutaneously, serving as a positive control for the assay). All procedures and measurements followed protocol 1, except no body composition measurements were taken. Limb grip strength was measured for control animals and animals receiving 60 mg/kg HB using a digital force gauge (Wagner Instruments model FDV5) by Product Safety Laboratories (Dayton, N.J.). After the rats were allowed to grip the screen with paws, the animals were quickly pulled until the paws released from the screen, and the required release force was recorded. Three trials on each animal were performed in triplicate, and significance was determined using Student's t test (p<0.05). In addition to the gastrocnemius muscle, androgen-sensitive tissues (ventral prostate, seminal vesicles, bulbocavernosus/levator ani muscle complex, glans penis, and Cowper's gland) were dissected out and weighed.
The muscle samples for histochemical analysis were taken from the middle section of the mixed-fiber gastrocnemius muscle of the castrated animals treated according to protocol 4 (described herein above) to allow for the observation of differences in fiber type distribution and cross-section area associated with ORX and HB treatments. Serial transverse cryosections (10 μm) were prepared from each muscle and were analyzed for myofibrillar adenosine triphosphatase (mATPase) histochemistry after alkaline (pH=9.5) preincubation. Fiber cross-section area and enzyme activity levels were determined from digitized images of the muscle cross-sections that were stored as gray-level pictures using ImageJ software (National Institutes of Health, Bethesda, Md.). […]

[3] = system: fully differentiated L6 rat skeletal myotubes; assay: MTT cell viability in L6 myotubes; assay type: cell-based; conditions: up to 25 μM
Experimental: In various aspects, cell viability is measured and the effects of doses of compound and test reagents are tested in cell lines. In some aspects, cell viability was measured by the MTT (3-(4,5-Dimethylthiazol-2-yl)-2,5-diphenyltetrazolium bromide) assay in triplicate (Mosmann et al., J. Immunol. Methods 65:55-63, 1983) and quantified spectrophotometrically at 550 nm using a microplate reader (Molecular Devices, Sunnyvale, Calif.).

[4] = Cytotoxicity, MTT assay in 3T3 fibroblasts; assay type: cell-based, mouse; conditions: mouse
[5] = 10 μg/mouse/day topically for 10 days
[6] = ORX rats, 20 mg/kg oral daily 10 d
[7] = ORX rats, 60 mg/kg oral daily 10 d
[8] = ORX rats, 60 mg/kg oral per day 10 days

CC[C@@H](C(C)C)[C@H](O)[C@@H](O)[C@@H](C)[C@H]1CC[C@H]2[C@@H]3COC(=O)[C@H]4C[C@H](O)[C@H](O)C[C@]4(C)[C@H]3CC[C@]12C [Compound 1, (22S,23S,24S)-2α,3α,22,23-tetrahydroxy-24 ethyl-β-homo-7-oxo-5α-cholestane-6-one]
CT50, time at which 50% of the cutaneous wound is closed [1, 5]: 5.4 ± 0.3 days
cutaneous wound healing compared with vehicle [1, 5]: significantly improved
increase in speed of wound closure relative to control mice ([1]; 10 μg/mouse/day topically, percent of original wound size): 2 fold
Cell proliferation at 5 μM, % of control (3T3 mouse fibroblasts): 37.7 ± 3.4 %
increase in gastrocnemius muscle mass ([2]; ORX rats, 20 mg/kg oral 10 d): 13.8%
Bulbocavernosus/levator ani weight [2, 6]: 109.2 ± 8.6 mg
Cowper's gland weight [2, 6]: 11.2 ± 0.7 mg
Seminal vesicles weight [2, 6]: 37.3 ± 3.5 mg
Ventral prostate weight [2, 6]: 26.0 ± 2.5 mg
Glans penis weight ([2]; ORX rats, 20 mg/kg oral daily 10 d, 20 mg/kg): 55.3 ± 1.7 mg
increase in gastrocnemius muscle mass ([2]; ORX rats, 60 mg/kg oral 10 d): 10.3%
Bulbocavernosus/levator ani weight [2, 7]: 137.7 ± 9.9 mg
Cowper's gland weight [2, 7]: 12.5 ± 1.1 mg
Seminal vesicles weight [2, 7]: 34.7 ± 3.3 mg
Ventral prostate weight [2, 7]: 23.0 ± 2.4 mg
Glans penis weight ([2]; ORX rats, 60 mg/kg oral daily 10 d, 60 mg/kg): 59.6 ± 1.6 mg
Change in grip strength of lower extremities [2, 8]: 0.0851 ± 0.0197 kg
change in grip strength for front limbs [2, 8]: 0.2711 ± 0.0660 kg
increase in total number of type IIa and type IIb fibers ([2]; gastrocnemius, 20 or 60 mg/kg per day 10 d, independent of dose): approximately 60%
androgenic activity in the Hershberger assay ([2]; rat, in vivo): very low androgenic activity
toxicity to L6 myotubes (MTT assay and cytological observations) [3]: no toxicity

CC[C@@H](C(C)C)[C@H](O)[C@@H](O)[C@@H](C)[C@H]1CC[C@H]2[C@@H]3CC(=O)[C@H]4C[C@H](O)[C@H](O)C[C@]4(C)[C@H]3CC[C@]12C [Compound 2, (22S,23S,24S)-2α,3α, 22,23-tetrahydroxy-24-ethyl-5α-cholestan-6-one]
IC50 [4]: > 30 µM
